Data taken from US6413908B1, “Agrochemical surfactant compositions” (Imperial Chemical Industries plc, priority 1997, dated 2002).

Tests used:
[1] = system: Galium aparine; test: Field test, triasulfuron plus adjuvants against weeds in winter wheat; format: in vivo; details: triasulfuron 25 g.ha^−1, adjuvant 0.1% by weight or none; visual, percentage of plants affected, 5 weeks after treatment
Method: (§1) Field tests were carried out on test plots using a completely randomised block design with 4 replicates. […] In such a situation, it is an important benefit if the herbicide can limit the growth of the weeds (inhibition) e.g. by use of an adjuvant. In this Example, the effect of adjuvants on the activity of triasulfuron against G aparine and V hederifolia growing naturally as weeds in winter wheat was examined. […] G aparine and V hederifolia were used in evaluating herbicidal activity because of their regular distribution. […] The results of the runs using no adjuvant and those for combined adjuvants and herbicide are set out in Table 1 below.

[2] = system: Veronica hederifolia; test: as above; format: in vivo; details: triasulfuron 25 g.ha^−1, adjuvant 0.1% by weight or none; visual, percentage of plants affected, 5 weeks after treatment
Method: as §1

[3] = system: Veronica hederifolia; details: background statement, no adjuvant; cited from earlier work
[4] = system: Galium aparine; details: background statement, no adjuvant; cited from earlier work
[5] = system: Veronica hederffolia; test: Field test, Cameo (tribenuron-methyl) plus adjuvants in winter wheat, growth reduction; format: in vivo; details: spray 0.015% tribenuron-methyl, 0.1% adjuvant in tank mix or none
Method: Field tests were carried out on test plots using a completely randomised block design with 4 replicates. The spray volume used was 300 I.ha^−1.
The spray solution contained 0.015% by weight tribenuronethyl and 0.1% adjuvant added to the tank mix. The effectiveness of the herbicides was assessed visually by the % growth reduction of the weeds as compared with untreated weeds.

| Molecule | Chlorosis, Galium aparine (5 weeks) [1] [%] | Inhibition, Galium aparine (5 weeks) [1] [%] | Necrosis, Galium aparine (5 weeks) [1] [%] | Chlorosis, Veronica hederifolia (5 weeks) [2] [%] | Inhibition, Veronica hederifolia (5 weeks) [2] [%] | Necrosis, Veronica hederifolia (5 weeks) [2] [%] | known activity against ivy-leaved speedwell (Veronica hederifolia) [3] | known activity against cleavers (Galium aparine) [4] | Inhibition (%), growth reduction of the weeds as compared with untreated weeds [5] [%] |
| --- | --- | --- | --- | --- | --- | --- | --- | --- | --- |
| COc1nc(C)nc(NC(=O)NS(=O)(=O)c2ccccc2OCCCl)n1 [triasulfuron] | 30 | 50 | 10 | 10 | 40 | 10 | limited activity | limited activity | – |
| nonyl phenol 8-ethoxylate [NP8] | 30 | 40 | 10 | 40 | 60 | 30 | – | – | 33 |
